Experimental data as given in ChEMBL document CHEMBL1914313, “Monosubstituted γ-lactam and conformationally constrained 1,3-diaminopropan-2-ol transition-state isostere inhibitors of β-secretase (BACE)” (Bioorg Med Chem Lett, 2011).
pIC50: −log10 of the molar value. Activity calls are given as the source filed them. No cut-off for these calls is given here.

How the values were obtained:
[1] = Selectivity for BACE1 over cathepsin E
[2] = Drug level in brain of transgenic 2576 mouse at 30 mg/kg, sc measured after 5 hrs; assay type: ADME, organism-based; parameters: dose 30 mg/kg, route subcutaneous; conditions: read-out: Drug uptake
Mus musculus [3] = test: Antialzheimer activity in transgenic 2576 mouse assessed as reduction in brain amyloid beta level at 30 mg/kg, sc measured after 5 hrs relative to control; assay type: functional, organism-based; parameters: dose 30 mg/kg
[4] = Selectivity for BACE1 over pepsin
[5] = Drug level in plasma of transgenic 2576 mouse at 30 mg/kg, sc measured after 5 hrs; assay type: ADME, organism-based; parameters: dose 30 mg/kg, route subcutaneous
Beta-secretase 1 [6] = molecular target: T1, Beta-secretase 1 (Homo sapiens, UniProt P56817); test: Inhibition of BACE1 by HPLC method
T1 sequence (P56817 whole entry): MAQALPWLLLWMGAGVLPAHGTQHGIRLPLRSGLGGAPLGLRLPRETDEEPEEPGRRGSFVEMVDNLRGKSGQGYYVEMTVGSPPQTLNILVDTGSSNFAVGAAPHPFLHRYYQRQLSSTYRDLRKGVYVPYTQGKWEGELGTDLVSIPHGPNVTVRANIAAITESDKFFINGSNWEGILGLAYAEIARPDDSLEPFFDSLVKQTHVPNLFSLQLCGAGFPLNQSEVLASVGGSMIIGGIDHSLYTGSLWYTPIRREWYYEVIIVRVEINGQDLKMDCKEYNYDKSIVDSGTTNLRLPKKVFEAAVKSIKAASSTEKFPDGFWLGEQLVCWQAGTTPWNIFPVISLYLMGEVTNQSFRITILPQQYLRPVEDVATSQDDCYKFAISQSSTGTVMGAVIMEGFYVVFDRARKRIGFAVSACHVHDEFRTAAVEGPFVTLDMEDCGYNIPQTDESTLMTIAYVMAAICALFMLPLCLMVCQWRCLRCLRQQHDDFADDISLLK

Beta-secretase 1 [7] = molecular target: T1, Beta-secretase 1; test: Inhibition of BACE1 in human HEK293 cells expressing swedish mutant APP; assay type: cell-based
[8] = Selectivity for BACE1 over cathepsin D
Mus musculus [9] = test: Antialzheimer activity in transgenic 2576 mouse assessed as reduction in plasma amyloid beta level at 30 mg/kg, sc measured after 5 hrs relative to control; assay type: functional; parameters: scale not given: the % may be the effect or the level left; conditions: route subcutaneous
[10] = Fraction unbound in plasma of transgenic 2576 mouse at 30 mg/kg, sc measured after 5 hrs; assay type: ADME, organism-based; parameters: dose 30 mg/kg, route subcutaneous
[11] = Ratio drug level in brain to plasma of transgenic 2576 mouse at 30 mg/kg, sc measured after 5 hrs; assay type: ADME, organism-based; parameters: dose 30 mg/kg, route subcutaneous; conditions: read-out: BPR
Rattus norvegicus [12] = test: Antialzheimer activity in CD-IGS rat assessed as reduction in brain amyloid beta level at 30 mg/kg, ip measured after 5 hrs relative to control; assay type: functional; parameters: scale not given: the % may be the effect or the level left; conditions: route intraperitoneal
[13] = Fraction unbound in plasma of CD-IGS rat at 30 mg/kg, ip measured after 5 hrs; assay type: ADME, organism-based; parameters: dose 30 mg/kg, route intraperitoneal
Rattus norvegicus [14] = test: Antialzheimer activity in CD-IGS rat assessed as reduction in plasma amyloid beta level at 30 mg/kg, ip measured after 5 hrs relative to control; assay type: functional; parameters: scale not given: the % may be the effect or the level left; conditions: route intraperitoneal
[15] = Ratio drug level in brain to plasma of CD-IGS rat at 30 mg/kg, ip measured after 5 hrs; assay type: ADME, organism-based; parameters: dose 30 mg/kg, route intraperitoneal; conditions: read-out: BPR
[16] = Plasma concentration in CD-IGS rat at 30 mg/kg, ip measured after 5 hrs; assay type: ADME, organism-based; parameters: dose 30 mg/kg, route intraperitoneal

Row | Selectivity ratio [1] | concentration at 5 h [2] [nM] | Selectivity ratio [4] | concentration at 5 h [5] [nM] | pIC50 (Beta-secretase 1 [6]) | pIC50 (Beta-secretase 1 [7]) | Selectivity ratio [8] | fraction unbound at 5 h [10] | Kp at 5 h [11] | fraction unbound at 5 h [13] | Kp at 5 h [15] | concentration at 5 h [16] [nM] | SMILES | Activity (Mus musculus [3]) | Activity (Mus musculus [9]) [%] | Activity (Rattus norvegicus [12]) [%] | Activity (Rattus norvegicus [14]) [%]
1 | 3400 | 680 | 3400 | 780 | 9.05 | 7.96 | 3400 | 0.1 | 0.87 | – | – | – | CCC(C)[C@@]1(NC(C)=O)CCN([C@@H](CCc2ccccc2)C(=O)N[C@@H](Cc2cc(F)cc(F)c2)[C@H](O)[C@H]2C[C@H](O)CN2)C1=O (some centres undefined) | inactive | 66 | – | –
2 | – | – | – | – | 7.22 | 7.09 | – | – | – | 0.029 | 0.18 | 1600 | CCCC[C@H]1CCN([C@@H](C)C(=O)N[C@@H](Cc2cc(F)cc(F)c2)[C@H](O)CNCc2cccc(OC)c2)C1=O | – | – | 112 | 26
3 | – | – | – | – | 7.72 | 7.08 | – | – | – | – | 0.02 | 4000 | CCCC[C@H]1CCN([C@@H](CCc2ccccc2)C(=O)N[C@@H](Cc2cc(F)cc(F)c2)[C@H](O)[C@H]2C[C@@H](OCCC)CN2)C1=O | – | – | 114 | 23
